Like-named read-outs stand apart in the source and are kept apart here.
Legend:
Human Calpain 1/NS1 = biological target: T1, Human Calpain 1/NS1 (Homo sapiens, UniProt P07384); test: Calpain inhibition continuous fluorescence (FRET) assay, Human Calpain 1/NS1; format: biochemical; conditions: read-out: Human Calpain 1/NS1 IC50
T1 sequence (P07384 1-714): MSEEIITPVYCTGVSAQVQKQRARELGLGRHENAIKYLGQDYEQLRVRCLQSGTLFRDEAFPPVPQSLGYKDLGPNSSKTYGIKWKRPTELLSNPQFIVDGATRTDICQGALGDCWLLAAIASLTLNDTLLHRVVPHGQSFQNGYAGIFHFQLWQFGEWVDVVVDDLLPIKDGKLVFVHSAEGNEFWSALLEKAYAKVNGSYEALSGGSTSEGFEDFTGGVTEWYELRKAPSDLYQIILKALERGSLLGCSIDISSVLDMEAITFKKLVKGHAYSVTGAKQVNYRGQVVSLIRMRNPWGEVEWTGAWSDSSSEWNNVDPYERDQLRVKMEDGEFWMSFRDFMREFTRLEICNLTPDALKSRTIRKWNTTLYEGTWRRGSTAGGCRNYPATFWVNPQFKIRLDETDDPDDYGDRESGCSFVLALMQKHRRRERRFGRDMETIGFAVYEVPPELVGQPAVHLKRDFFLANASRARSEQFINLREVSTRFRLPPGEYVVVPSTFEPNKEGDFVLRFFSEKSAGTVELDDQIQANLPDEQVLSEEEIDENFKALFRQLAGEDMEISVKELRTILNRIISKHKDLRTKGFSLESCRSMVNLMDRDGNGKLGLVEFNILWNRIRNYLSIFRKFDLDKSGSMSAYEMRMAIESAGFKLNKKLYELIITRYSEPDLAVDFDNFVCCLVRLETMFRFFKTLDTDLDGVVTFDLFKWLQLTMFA
T1 sequence (P04632 1-268 partner): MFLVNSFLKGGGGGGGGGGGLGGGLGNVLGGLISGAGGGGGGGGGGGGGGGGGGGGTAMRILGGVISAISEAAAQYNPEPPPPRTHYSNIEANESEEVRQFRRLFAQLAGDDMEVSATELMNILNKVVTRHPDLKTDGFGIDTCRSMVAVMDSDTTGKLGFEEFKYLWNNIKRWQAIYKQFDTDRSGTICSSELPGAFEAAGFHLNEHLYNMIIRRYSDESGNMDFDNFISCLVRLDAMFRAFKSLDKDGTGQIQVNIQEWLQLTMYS
Method in brief: (§1)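 Human calpains 1, 2 and 9 preincubated with inhibitor at 25 °C in 50 mM Tris pH 7.5, 100 mM NaCl, 1 mM DTT; reaction started with 5-FAM/QXL 520 FRET peptide plus CaCl2 for activation. Fluorescence (490/520 nm) followed 10 min; rates from 1-5 min slopes fitted to 4-parameter logistic for IC50.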

Human Calpain 2/NS1 = biological target: T2, Human Calpain 2/NS1 (Homo sapiens, UniProt P17655); test: Calpain inhibition continuous fluorescence (FRET) assay, Human Calpain 2/NS1; format: biochemical; conditions: read-out: Human Calpain 2/NS1 IC50
T2 sequence (P17655 1-700): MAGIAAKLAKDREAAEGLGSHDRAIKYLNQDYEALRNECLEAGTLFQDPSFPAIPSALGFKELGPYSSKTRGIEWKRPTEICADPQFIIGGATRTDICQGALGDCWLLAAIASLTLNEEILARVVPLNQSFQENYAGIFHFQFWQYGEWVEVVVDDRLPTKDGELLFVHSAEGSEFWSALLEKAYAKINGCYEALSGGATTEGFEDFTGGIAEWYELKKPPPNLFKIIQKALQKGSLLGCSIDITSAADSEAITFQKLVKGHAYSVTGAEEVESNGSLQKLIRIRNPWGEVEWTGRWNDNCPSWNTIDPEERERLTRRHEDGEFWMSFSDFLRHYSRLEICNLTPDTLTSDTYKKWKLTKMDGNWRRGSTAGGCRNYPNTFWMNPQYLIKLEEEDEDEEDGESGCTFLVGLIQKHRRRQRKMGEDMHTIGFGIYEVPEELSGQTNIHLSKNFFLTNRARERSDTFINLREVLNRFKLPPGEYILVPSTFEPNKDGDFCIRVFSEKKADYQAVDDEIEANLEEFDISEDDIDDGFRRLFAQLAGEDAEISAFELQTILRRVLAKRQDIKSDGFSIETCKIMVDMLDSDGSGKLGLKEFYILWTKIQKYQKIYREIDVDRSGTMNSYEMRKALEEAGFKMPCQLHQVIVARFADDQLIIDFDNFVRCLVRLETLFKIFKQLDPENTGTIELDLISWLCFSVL
T2 sequence (P04632 1-268 partner): T1 sequence (P04632 1-268 partner)
Method in brief: as §1

Human Calpain 9/NS1 = biological target: T3, Human Calpain 9/NS1 (Homo sapiens, UniProt O14815); test: Calpain inhibition continuous fluorescence (FRET) assay, Human Calpain 9/NS1; format: biochemical; conditions: read-out: Human Calpain 9/NS1 IC50
T3 sequence (O14815 1-690): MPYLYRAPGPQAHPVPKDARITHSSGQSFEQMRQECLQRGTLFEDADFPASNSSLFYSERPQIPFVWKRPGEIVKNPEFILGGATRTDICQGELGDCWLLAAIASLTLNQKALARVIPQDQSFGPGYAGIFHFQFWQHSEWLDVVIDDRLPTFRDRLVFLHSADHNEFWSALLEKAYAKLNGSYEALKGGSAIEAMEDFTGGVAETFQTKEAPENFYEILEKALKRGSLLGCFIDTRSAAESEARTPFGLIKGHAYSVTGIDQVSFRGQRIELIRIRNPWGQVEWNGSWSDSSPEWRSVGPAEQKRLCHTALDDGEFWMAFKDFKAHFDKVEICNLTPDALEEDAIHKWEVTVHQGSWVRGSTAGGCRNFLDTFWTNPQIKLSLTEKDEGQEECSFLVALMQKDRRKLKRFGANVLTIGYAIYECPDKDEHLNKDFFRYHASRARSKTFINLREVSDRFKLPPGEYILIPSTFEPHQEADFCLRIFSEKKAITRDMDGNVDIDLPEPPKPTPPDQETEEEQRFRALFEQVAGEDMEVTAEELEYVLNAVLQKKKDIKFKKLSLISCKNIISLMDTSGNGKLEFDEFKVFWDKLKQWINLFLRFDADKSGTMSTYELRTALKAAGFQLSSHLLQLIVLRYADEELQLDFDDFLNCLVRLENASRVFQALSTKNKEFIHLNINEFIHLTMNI
T3 sequence (P04632 1-268 partner): T1 sequence (P04632 1-268 partner)
Method in brief: as §1

[1] = test system: Calpain activity in SH-SY5Y cells (SBDP-150); test: SH-SY5Y Spectrin western blot assay (SBDP-150 breakdown product, A23187-induced); format: cell-based; conditions: Homo sapiens, SH-SY5Y cells, read-out: SH-SY5Y Spectrin IC50
[2] = test system: Calpain activity in SH-SY5Y cells; test: SH-SY5Y + AMC fluorescence assay (Suc-LLVY-AMC substrate); format: cell-based; conditions: read-out: SH-SY5Y + AMC IC50
[3] = Column D, A23187-induced SBDP-150
[4] = A23187-induced SBDP-150, western blot

| Structure (SMILES) | IC50 (Human Calpain 1/NS1; Column A) [µM] | IC50 (Human Calpain 2/NS1; Column B) [µM] | IC50 (Human Calpain 9/NS1; Column C) [µM] | IC50 [1, 3] [µM] | IC50 ([2]; Column E) [µM] | IC50 (Human Calpain 1/NS1) [µM] | IC50 (Human Calpain 9/NS1) [µM] | IC50 [1, 4] [µM] | IC50 [2] [µM] | IC50 (Human Calpain 2/NS1) [µM] |
| --- | --- | --- | --- | --- | --- | --- | --- | --- | --- | --- |
| Cc1cc(C(=O)N[C@@H](Cc2ccccc2)C(=O)C(N)=O)n(-c2cccc(-c3ccccc3)c2)n1 [Compound 16, (S)-1-([1,1′-biphenyl]-3-yl)-N-(4-amino-3,4-dioxo-1-phenylbutan-2-yl)-3-methyl-1H-pyrazole-5-carboxamide] | < 3 | < 3 | < 3 | 10 to 25 | 10 to 25 | – | – | – | – | – |
| Cc1cc(C(=O)N[C@@H](Cc2ccccc2)C(=O)C(N)=O)n(-c2ccc(S(C)(=O)=O)cc2)n1 [Compound 17, (S)—N-(4-amino-3,4-dioxo-1-phenylbutan-2-yl)-3-methyl-1-(4-(methylsulfonyl)phenyl)-1H-pyrazole-5-carboxamide] | < 3 | < 3 | < 3 | < 10 | > 25 | – | – | – | – | – |
| Cc1cc(C(=O)N[C@@H](Cc2ccccc2)C(=O)C(N)=O)n(-c2ccc(OC(F)(F)F)cc2)n1 [Compound 19, (S)—N-(4-amino-3,4-dioxo-1-phenylbutan-2-yl)-3-methyl-1-(4-(trifluoromethoxy)phenyl)-1H-pyrazole-5-carboxamide] | < 3 | < 3 | < 3 | 10 to 25 | > 25 | – | – | – | – | – |
| Cc1nc(-c2ccccc2)c(C(=O)N[C@@H](Cc2ccccc2)C(=O)C(N)=O)o1 [Compound 26, (S)—N-(4-amino-3,4-dioxo-1-phenylbutan-2-yl)-2-methyl-4-phenyloxazole-5-carboxamide] | < 3 | < 3 | < 3 | < 10 | < 10 | – | – | – | – | – |
| Cc1onc(-c2ccccc2)c1C(=O)N[C@@H](Cc1ccccc1)C(=O)C(N)=O [Compound 27, (S)—N-(4-amino-3,4-dioxo-1-phenylbutan-2-yl)-5-methyl-3-phenylisoxazole-4-carboxamide] | < 3 | < 3 | < 3 | 10 to 25 | > 25 | – | – | – | – | – |
| NC(=O)C(=O)[C@H](Cc1ccccc1)NC(=O)c1nnsc1-c1ccccc1 [Compound 28, (S)—N-(4-amino-3,4-dioxo-1-phenylbutan-2-yl)-5-phenyl-1,2,3-thiadiazole-4-carboxamide] | < 3 | < 3 | < 3 | < 10 | < 10 | – | – | – | – | – |
| Cc1nc(-c2cccc(F)c2)c(C(=O)N[C@@H](Cc2ccccc2)C(=O)C(N)=O)o1 [Compound 254, (S)—N-(4-amino-3,4-dioxo-1-phenylbutan-2-yl)-4-(3-fluorophenyl)-2-methyloxazole-5-carboxamide] | < 3 | – | < 3 | 10 to 25 | < 10 | – | – | – | – | – |
| NC(=O)C(=O)[C@H](Cc1ccccc1)NC(=O)c1cn(C(F)F)nc1-c1ccccc1 [Compound 379, (S)—N-(4-amino-3,4-dioxo-1-phenylbutan-2-yl)-1-(difluoromethyl)-3-phenyl-1H-pyrazole-4-carboxamide] | – | – | – | – | – | < 3 | < 3 | < 10 | < 10 | – |
| CCn1cc(C(=O)NC(Cc2ccccc2)C(=O)C(N)=O)c(-c2cccc(F)c2)n1 (stereo not shown) [Compound 470, N-(4-amino-3,4-dioxo-1-phenylbutan-2-yl)-1-ethyl-3-(3-fluorophenyl)-1H-pyrazole-4-carboxamide] | – | – | – | – | – | < 3 | – | 10 to 25 | < 10 | < 3 |
| NC(=O)C(=O)C(Cc1ccccc1)NC(=O)c1nsnc1-c1ccc2c(c1)OC(F)(F)O2 (stereo not shown) [Compound 599, N-(4-amino-3,4-dioxo-1-phenylbutan-2-yl)-4-(2,2-difluorobenzo[d][1,3]dioxol-5-yl)-1,2,5-thiadiazole-3-carboxamide] | – | – | – | – | – | – | < 3 | > 25 | > 25 | – |

Next, values leading:

| IC50 (Human Calpain 1/NS1; Column A) [µM] | IC50 (Human Calpain 2/NS1; Column B) [µM] | IC50 (Human Calpain 9/NS1; Column C) [µM] | IC50 [1, 3] [µM] | IC50 ([2]; Column E) [µM] | IC50 (Human Calpain 1/NS1) [µM] | IC50 (Human Calpain 9/NS1) [µM] | IC50 [1, 4] [µM] | IC50 [2] [µM] | IC50 (Human Calpain 2/NS1) [µM] | Structure (SMILES) |
| --- | --- | --- | --- | --- | --- | --- | --- | --- | --- | --- |
| < 3 | < 3 | < 3 | 10 to 25 | < 10 | – | – | – | – | – | Cc1cc(C(=O)N[C@@H](Cc2ccccc2)C(=O)C(N)=O)n(-c2ccccn2)n1 [Compound 12, (S)—N-(4-amino-3,4-dioxo-1-phenylbutan-2-yl)-3-methyl-1-(pyridin-2-yl)-1H-pyrazole-5-carboxamide] |
| < 3 | < 3 | < 3 | < 10 | 10 to 25 | – | – | – | – | – | Cc1cc(C(=O)N[C@@H](Cc2ccccc2)C(=O)C(N)=O)n(-c2ccc3ccccc3n2)n1 [Compound 15, (S)—N-(4-amino-3,4-dioxo-1-phenylbutan-2-yl)-3-methyl-1-(quinolin-2-yl)-1H-pyrazole-5-carboxamide] |
| < 3 | < 3 | < 3 | 10 to 25 | > 25 | – | – | – | – | – | Cc1noc(-c2ccccc2)c1C(=O)N[C@@H](Cc1ccccc1)C(=O)C(N)=O [Compound 23, (S)—N-(4-amino-3,4-dioxo-1-phenylbutan-2-yl)-3-methyl-5-phenylisoxazole-4-carboxamide] |
| < 3 | < 3 | < 3 | > 25 | > 25 | – | – | – | – | – | NC(=O)C(=O)[C@H](Cc1ccccc1)NC(=O)c1cncn1-c1ccccn1 [Compound 24, (S)—N-(4-amino-3,4-dioxo-1-phenylbutan-2-yl)-1-(pyridin-2-yl)-1H-imidazole-5-carboxamide] |
| < 3 | < 3 | < 3 | < 10 | 10 to 25 | – | – | – | – | – | NC(=O)C(=O)[C@H](Cc1ccccc1)NC(=O)c1c[nH]nc1-c1ccccc1 [Compound 30, (S)—N-(4-amino-3,4-dioxo-1-phenylbutan-2-yl)-3-phenyl-1H-pyrazole-4-carboxamide] |

Reference: patent US11339130B1 (Blade Therapeutics, Inc., priority 2016, dated 2022)
